Results published in patent US12595248B2, “PRMT5 inhibitors” (Merck Sharp & Dohme LLC, priority 2019, dated 2026).
Like-named read-outs stand apart in the source and are kept apart here.

Columns and labels:
[1] = target: T1, PRMT5-MEP50 enzyme complex (Homo sapiens, UniProt O14744); experiment: PRMT5-MEP50 Enzyme Methylation Assay (Version B); format: biochemical
T1 construct: Full-length (FL)-PRMT5-MEP50 enzyme complex (recombinant proteins from baculovirus-transfected Sf21 cells: FL-PRMT5; MW=73837 kDa and FL-MEP50; MW=38614); made in house; host or cells: baculovirus-transfected Sf21 cells
T1 sequence (O14744 whole entry): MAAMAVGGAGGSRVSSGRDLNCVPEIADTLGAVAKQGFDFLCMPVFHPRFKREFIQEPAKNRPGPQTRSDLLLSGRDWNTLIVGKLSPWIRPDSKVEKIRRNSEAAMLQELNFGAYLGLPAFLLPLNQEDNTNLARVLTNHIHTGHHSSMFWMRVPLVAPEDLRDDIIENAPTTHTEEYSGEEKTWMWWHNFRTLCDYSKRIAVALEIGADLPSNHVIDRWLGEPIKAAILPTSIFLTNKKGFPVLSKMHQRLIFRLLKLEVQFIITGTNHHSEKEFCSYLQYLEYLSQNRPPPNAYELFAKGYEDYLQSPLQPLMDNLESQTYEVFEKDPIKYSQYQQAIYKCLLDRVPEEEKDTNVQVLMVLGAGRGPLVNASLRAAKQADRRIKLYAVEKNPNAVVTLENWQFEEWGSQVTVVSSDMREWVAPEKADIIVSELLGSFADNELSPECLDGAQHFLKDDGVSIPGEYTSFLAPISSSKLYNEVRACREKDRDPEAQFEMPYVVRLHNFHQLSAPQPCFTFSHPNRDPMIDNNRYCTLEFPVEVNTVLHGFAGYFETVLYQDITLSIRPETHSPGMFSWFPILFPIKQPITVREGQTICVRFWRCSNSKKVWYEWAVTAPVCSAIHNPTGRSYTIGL
T1 sequence (Q9BQA1 whole entry partner): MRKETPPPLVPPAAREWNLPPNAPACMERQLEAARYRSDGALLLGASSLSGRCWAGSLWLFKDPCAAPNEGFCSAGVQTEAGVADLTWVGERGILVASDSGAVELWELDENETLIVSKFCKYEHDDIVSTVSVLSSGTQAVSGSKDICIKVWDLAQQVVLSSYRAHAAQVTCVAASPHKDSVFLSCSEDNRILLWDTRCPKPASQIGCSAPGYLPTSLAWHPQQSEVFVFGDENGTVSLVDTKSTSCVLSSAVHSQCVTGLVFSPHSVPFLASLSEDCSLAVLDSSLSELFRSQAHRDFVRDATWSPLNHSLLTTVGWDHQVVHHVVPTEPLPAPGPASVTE
Experimental: PRMT5-MEP50 Enzyme Methylation Assay (Version B)
PRMT5-MEP50 biochemical assay is a direct measurement of the methylation activity of the enzyme complex on a short peptide substrate derived from the N-terminus of H4 histone. Methylation experiment was performed with recombinant PRMT5-MEP50 protein complex. The assessment of inhibitory effect (EC50) of small molecules was measured by the effectiveness of the compounds to inhibit this reaction.
In this assay, the potency (EC50) of each compound was determined from a twenty-point (1:2 serial dilution; top compound concentration of 100000 nM) titration curve using the following outlined procedure. To each well of a white ProxiPlus 384 well-plate, 100 nL of compound (1% DMSO in final assay volume of 10 μL) was dispensed, followed by the addition of 8 μL of 1× assay buffer (50 mM Bicine pH 8.0, 1 mM DTT, 0.004% Tween20, 0.01% BSA) containing 0.625 nM of Full-length (FL)-PRMT5-MEP50 enzyme complex (recombinant proteins from baculovirus-transfected Sf21 cells: FL-PRMT5; MW=[…] and FL-MEP50; MW=38614). Plates were sealed and placed in a 37° C. humidified chamber for 30 minutes pre-incubation with compounds. Subsequently, each reaction was initiated by the addition of 2 μL 1× assay buffer containing 375 nM biotinylated H4R3 (MeI) peptide, and 75 μM S-(5′-Adenosyl)-L-Methionine Chloride (SAM). The final reaction in each well of 10 μL consists of 0.5 nM PRMT5-MEP50, 75 nM biotinylated-peptide, and 15 μM SAM. Methylation reactions were allowed to proceed for 150 minutes in a sealed plate at 37° C. Reactions were immediately quenched by the addition of 1 μL of 10% formic acid. Plates were then frozen and shipped to SAMDI™ Tech Inc. to determine the percent conversion from […]. Dose-response curves were generated by plotting percent effect (% product conversion; Y-axis) vs. Log 10 compound concentrations (X-axis). EC50 values were determined by non-linear regression according to models for either sigmoidal (4 parameters) or biphasic (7 parameters) dose-response curves.

PRMT5 = target: T2, PRMT5 (Homo sapiens, UniProt O14744); experiment: PRMT5 Cell Target Engagement (TE) Assay; format: cell-based; conditions: MCF-7 cells, treated for 3 days, symmetric dimethylation of arginine (SDMA) by high content imaging
T2 construct: seeded with 4000 MCF-7 cells in 30 μl media; endogenous in cells; host or cells: MCF-7 cells
T2 sequence (O14744 whole entry): as the sequence (O14744 whole entry) above
T2 sequence (Q9BQA1 whole entry partner): as the sequence (Q9BQA1 whole entry partner) above
From the text: PRMT5 Cell Target Engagement (TE) Assay
The PRMT5 TE assay is a biomarker assay for identifying compounds that inhibit symmetric dimethylation of arginine (SDMA) of PRMT5 substrates. The following substrates have been reported for PRMT5: histone H2A and H4 R3, Histone H3 R2, Histone H3 R8, spliceosome Sm proteins, ribosomal protein RPS10, p53, FEN1, nucleoplasmin, nucleolin, EGFR and EBNA. The assay focuses on detecting symmetrically dimethylated nuclear proteins using high content imaging technology. Detection of the expression of symmetrically dimethylated nuclear proteins is through a mixture of primary rabbit monoclonal antibodies to SDMA (CST 13222), which in turn recognized by an Alexafluor 488 dye-conjugated anti-rabbit IgG secondary antibody. The IN Cell Analyzer 2200 or Opera-Phenix measures nuclear Alexafluor 488 fluorescent dye intensity that is directly related to the level of expression of symmetrically dimethylated nuclear proteins at the single cell level. Nuclear AF488 dye intensities are compared to the mean value for DMSO treated cells (MIN) to report percent of inhibition for each compound-treated well.
In this assay, the cell potency (EC50) of each compound was determined from a ten point (1:3 serial dilution; top compound concentration of 10000 nM) titration curve using the following outlined procedure. Each well of a BD falcon collagen coated black/clear bottom 384-well plate was seeded with 4000 MCF-7 cells in 30 μl media and allowed to attach for 5 h. Media is ATCC-formulated Eagle's Minimum Essential Medium, Catalog No. 30-2003. To make the complete growth medium, the following components were added to the base medium: 0.01 mg/mL human recombinant insulin; fetal bovine serum to a final concentration of 10%. Additional 30 μl of media containing 2× compounds were added to each well. Cells were treated for 3 days in 37° C. CO2 incubator. On day 3, cells were fixed with Cytofix, permeabilized with 0.4% Triton-X-100/Cytofix, and washed with D-PBS without Ca/Mg. Cells were blocked with Licor Odessey blocking reagent for 1 h at room temperature, followed by incubation with anti-SDMA (1:1000) antibody at 4° C. overnight. 1° antibody was removed, followed by three washings with DPBS without Ca/Mg and 0.05% Tween20. Hoechst (5 μg/mL), Cell Mask deep stain (1:2000) and Alexa488-conjugated goat anti-rabbit IgG (2 μg/mL) was added for 1 h at room temperature. A final washing step (three washes) was performed before sealing plate for imaging on In Cell Analyzer 2200 or Opera-Phenix. Images from analyzer were uploaded to Columbus (at WP or BOS) for image analysis. IC50 values were determined by 4 parameters robust fit of percent fluorescence units vs. (Log10) compound concentrations.

[2] = first of two EC50s: 7 parameters biphasic model, read-out: Enzyme Methylation Assay Version B (EC50_1)
[3] = second of two EC50s: 7 parameters biphasic model, read-out: Enzyme Methylation Assay Version B (EC50_2)
[4] = only one EC50 shown: 4 parameters single site sigmoidal model, 30 min pre-incubation, read-out: Enzyme Methylation Assay Version B (EC50)

SMILES | EC50 [1, 2] [nM] | EC50 [1, 3] [nM] | EC50 (PRMT5) [nM] | EC50 [1, 4] [nM]
CCOc1cc(C(=O)N2C3CCC2COC3)ccc1C(=O)N1CC[C@H](N2CCc3ccccc3C2)[C@@H](O)C1 [Example 33] | 23 | 4650 | 27 | 
CCC1Oc2ccc(C(=O)N3CC[C@H](N4CCc5ccccc5C4)[C@@H](O)C3)cc2NC1=O (single isomer, unassigned) [Example 10] | 6.4 | 4620 | 119 | 
CC(=O)N1CCC(Nc2cc(C(=O)N3CC[C@@H](N4CCc5ccccc5C4)[C@H](O)C3)ccn2)C(F)(F)C1 (single isomer, unassigned) [Example 9] | 61 | 8790 | 1680 | 
O=C(c1ccc(C(=O)N2C3CCC2COC3)cc1)N1CC[C@@H](N2CCc3cc(F)ccc3C2)[C@H](O)C1 [Example 40, (4-(3-oxa-8-azabicyclo[3.2.1]octane-8-carbonyl)phenyl)((3R,4R)-4-(6-fluoro-3,4-dihydroisoquinolin-2(1H)-yl)-3-hydroxypiperidin-1-yl)methanone] | 45100 | > 100000 | > 10000 | 
CC(=O)N1CCC(Nc2cc(C(=O)N3CCC(N4Cc5ccccc5C(F)(F)C4)C(O)C3)c(F)cn2)CC1 (single isomer, unassigned) [Example 27, 1-(4-((5-fluoro-4-(-4-(4,4-difluoro-3,4-dihydroisoquinolin-2(1H)-yl)-3-hydroxypiperidine-1-carbonyl)pyridin-2-yl)amino)piperidin-1-yl)ethan-1-one] |  |  | > 10000 | 809
Cc1ccc2c(c1)CCN([C@H]1CCN(C(=O)c3ccc(OCC(F)(F)F)nc3)C[C@@H]1O)C2 [Example 4, ((3S,4S)-3-hydroxy-4-(6-methyl-3,4-dihydroisoquinolin-2(1H)-yl)piperidin-1-yl)(6-(2,2,2-trifluoroethoxy)pyridin-3-yl)methanone] | ~10 | 29200 | > 10000 | 
O=C(c1ccc(C(=O)N2C3CCC2COC3)cc1)N1CC[C@H](N2CCc3ccc(F)cc3C2)[C@@H](O)C1 [Example 41, (4-(3-oxa-8-azabicyclo[3.2.1]octane-8-carbonyl)phenyl)((3S,4S)-4-(7-fluoro-3,4-dihydroisoquinolin-2(1H)-yl)-3-hydroxypiperidin-1-yl)methanone] | 19 | 8110 | 1490 | 
CC(=O)N1CCC(Nc2cc(C(=O)N3CC[C@@H](N4CCc5ccccc5C4)[C@H](O)C3)c(F)cn2)CC1 [Example 3, 1-(4-((4-((3R,4R)-4-(3,4-dihydroisoquinolin-2(1H)-yl)-3-hydroxypiperidine-l-carbonyl)-5-fluoropyridin-2-yl)amino)piperidin-l-yl)ethan-l-one] | ~75 | 37600 | 3090 | 
CC(=O)N1CCC(Nc2cc(C(=O)N3CC[C@H](N4CCc5ccccc5C4)[C@@H](O)C3)ccn2)C(F)(F)C1 (single isomer, unassigned) [Example 6] | 4.8 | 2690 | 24 | 
Cc1ccc2c(c1)CCN([C@@H]1CCN(C(=O)c3ccc(OCC(F)(F)F)nc3)C[C@H]1O)C2 [Example 5, ((3R,4R)-3-hydroxy-4-(6-methyl-3,4-dihydroisoquinolin-2(1H)-yl)piperidin-1-yl)(6-(2,2,2-trifluoroethoxy)pyridin-3-yl)methanone] |  |  | > 10000 | 1410
CC(=O)N1CCC(Nc2cc(C(=O)N3CC[C@@H](N4CCc5ccccc5C4)[C@H](O)C3)ccn2)C(F)(F)C1 (single isomer, unassigned) [Example 8] | ~571 | > 100000 | 9290 | 

Next, values leading:

EC50 [1, 2] [nM] | EC50 [1, 3] [nM] | EC50 (PRMT5) [nM] | EC50 [1, 4] [nM] | SMILES
5.4 | 2850 | 59 |  | CC1(C)OC(=O)Nc2cc(C(=O)N3CC[C@H](N4CCc5ccccc5C4)[C@@H](O)C3)ccc21 [Example 97, 7-((3S,4S)-4-(3,4-dihydroisoquinolin-2(1H)-yl)-3-hydroxypiperidine-1-carbonyl)-4,4-dimethyl-1,4-dihydro-2H-benzo[d][1,3]oxazin-2-one]
14 | 4680 | 435 |  | O=C(c1ccc(-c2ncnn2C2CC2)cc1)N1CC[C@H](N2CCc3ccccc3C2)[C@@H](O)C1 [Example 60, (4-(1-cyclopropyl-1H-1,2,4-triazol-5-yl)phenyl)((3S,4S)-4-(3,4-dihydroisoquinolin-2(1H)-yl)-3-hydroxypiperidin-1-yl)methanone]
 |  | > 10000 | 2160 | O=C(c1ccn(CC(F)(F)F)c(=O)c1)N1CC[C@@H](N2CCc3ccccc3C2)[C@H](O)C1 [Example 32, 4-((3R,4R)-4-(3,4-dihydroisoquinolin-2(1H)-yl)-3-hydroxypiperidine-1-carbonyl)-1-(2,2,2-trifluoroethyl)pyridin-2(1H)-one]
3.2 | 1040 | 15 |  | CS(=O)(=O)N1CCC(Nc2cc(C(=O)N3CC[C@H](N4CCc5ccccc5C4)[C@@H](O)C3)c(F)cn2)CC1 [Example 105, ((3S,4S)-4-(3,4-dihydroisoquinolin-2(1H)-yl)-3-hydroxypiperidin-1-yl)(5-fluoro-2-((1-(methylsulfonyl)piperidin-4-yl)amino)pyridin-4-yl)methanone]
 |  | > 10000 | 1180 | Cc1ccc2c(c1)CN(C1CCN(C(=O)c3ccc(OCC(F)(F)F)nc3)CC1O)CC2 (single isomer, unassigned) [Example 47, ((3R,4R or 3S,4S)-3-hydroxy-4-(7-methyl-3,4-dihydroisoquinolin-2(1H)-yl)piperidin-1-yl)(6-(2,2,2-trifluoroethoxy)pyridin-3-yl)methanone]
 |  | > 10000 | 1540 | CC(C)(C#N)c1ccc(C(=O)N2CC[C@@H](N3CCc4ccccc4C3)[C@H](O)C2)cn1 (single isomer, unassigned) [Example 90]
11 | 8910 | 7.8 |  | CC(=O)N1CCC(Nc2cc(C(=O)N3CC[C@H](N4CCc5ccccc5C4)[C@@H](O)C3)c(Cl)cn2)CC1 [Example 49, 1-{4-[(5-chloro-4-{[(3S,4S)-4-(3,4-dihydroisoquinolin-2(1H)-yl)-3-hydroxypiperidin-1-yl]carbonyl}pyridin-2-yl)amino]piperidin-1-yl}ethanone]
